# Experiments:
# HT29 = test: NCI-60 screen, Colon Cancer HT29; assay type: cell-based, human; details: for Growth of Cells (%): HT29, 10^−5 M one dose
# MALME-3M = test: NCI-60 screen, Melanoma MALME-3M; assay type: cell-based, human; details: for Growth of Cells (%): 10^−5 M one dose
# NCI-H226 = test: NCI-60 screen, Non-Small Cell Lung Cancer NCI-H226; assay type: cell-based, human; details: for Growth of Cells (%): NCI-H226, 10^−5 M one dose
# K-562 = test: NCI-60 screen, Leukemia K-562; assay type: cell-based, human; details: for Growth of Cells (%): K-562, 10^−5 M one dose
# DU145 = test: MTT cell viability assay, DU145; assay type: cell-based, human; details: Homo sapiens, DU-145; DU145, MTT, 72 h, mean ± SD
# Protocol: Twelve compounds (2a-e, 3a-d and 4a-c) at a concentration range of 50–5000 μM were tested for their antiproliferative potential against four human cancer cell lines (A375—melanotic melanoma, C32—amelanotic melanoma, DU145—prostate cancer androgen-independent, MCF-7/WT—breast adenocarcinoma) and two normal cell lines: Chinese Hamster Ovary (CHO-K1) and immortalized human keratinocytes from histologically normal skin (HaCaT).
# To determine the antiproliferative activity of newly synthesized compounds, the following cell lines were used: human melanotic melanoma cell line (A375), human amelanotic melanoma cell line (C32), human breast adenocarcinoma cell line (MCF-7/WT), human prostate cancer androgen-independent (DU145) and two normal cell lines: hamster ovarian (CHO-K1) and immortalized human keratinocytes from histologically normal skin (HaCaT). The cells were obtained from the cell line bank of the Department of Molecular and Cellular Biology, Wroclaw Medical University. A375, C32, MCF-7/WT, DU145 and HaCaT cells were grown in a monolayer cultured in Dulbecco’s Modified Eagle’s Medium (DMEM, Sigma-Aldrich, Poznań, Poland), supplemented with 10% of fetal bovine serum (FBS, Gibco, Paisley, UK) and 1% of antibiotics (penicillin/streptomycin, Sigma-Aldrich) and CHO-K1 were grown in HAM’s F-12 medium (Sigma-Aldrich), supplemented with 10% fetal bovine serum (FBS, Gibco) and 1% of antibiotics (penicillin/streptomycin, Sigma-Aldrich). Cell lines were cultured in the polystyrene flasks 25 or 75 cm^2 (Thermo Fisher Scientific, Waltham, MA, USA), which were stored in 37 °C and 5% CO2 in a humidified 95% atmosphere (SteriCult, Thermo Scientific, Alab). The cell medium was exchanged twice a week. The exponentially growing cells were used throughout the experiments. The cells were rinsed with phosphate-buffered saline (PBS, Sigma-Aldrich) and trypsinized by Trypsin-EDTA 0.25% solution (Sigma-Aldrich).
# The influence of the compounds was performed in a monolayer culture on cancer and normal cells. Compounds were initially dissolved in DMSO; further dilutions of the compound were performed in Dulbecco’s Modified Eagle’s Medium supplemented with 10% FBS. Compounds were tested in a 50–5000 µM concentration range. In the in vitro experiments, the concentrations of DMSO in the final solution of the compounds were used 0.05%; 0.1%; 0.5%; 1%, respectively.
# Cell viability was determined using the MTT colorimetric assay. All cell lines were seeded into 96-well plates to a density of 3 × 10^4 cells/well. After 24 h, the culture supernatants were removed and appropriate dilutions of compounds in the culture medium (200 µL/well) were added to the cells’ monolayer cultures and incubated for an additional 72 h. After 72 h of exposition to the compounds and the removal of the culture medium, cell viability was determined by reducing the yellow dye 3-(4,5-dimethyl-2-thiazol)-2,5-diphenyl-2H-tetrazolium bromide (MTT assay, Sigma Saint Louis, MO, USA; In Vitro Toxicology Assay) to a blue formazan product. The absorbance of the resulting solutions in three duplicate experiments was measured at the wavelength of 560 nm in a microplate reader (EnSpire, Perkin Elmer, Kraków, Poland). MTT assay is a colorimetric method that estimates the rate of metabolism in viable cells. Absorbance is directly proportional to the number of viable cells. All the experiments were performed three times and the mean absorbance values were calculated. The methodology for the evaluation of the growth of human cancer and normal cells was described previously. The cell viability in each group was expressed as a percentage of control (untreated) cells.
# IGROV1 = test: NCI-60 screen, Ovarian Cancer IGROV1; assay type: cell-based; details: for Growth of Cells (%): IGROV1, 10^−5 M one dose
# NCI-H322M = test: NCI-60 screen, Non-Small Cell Lung Cancer NCI-H322M; assay type: cell-based, human; details: for Growth of Cells (%): 10^−5 M one dose
# SF-539 = test: NCI-60 screen, CNS Cancer SF-539; assay type: cell-based, human; details: for Growth of Cells (%): SF-539, 10^−5 M one dose
# BT-549 = test: NCI-60 screen, Breast Cancer BT-549; assay type: cell-based, human; details: for Growth of Cells (%): BT-549, 10^−5 M one dose
# M14 = test: cells; details: Homo sapiens
# SK-MEL-5 = test: NCI-60 screen, Melanoma SK-MEL-5; assay type: cell-based, human; details: for Growth of Cells (%): SK-MEL-5, 10^−5 M one dose
# [1] = MTT cell viability assay, HaCaT; assay type: cell-based, human; details: HaCaT keratinocytes (normal cell line), HaCaT human keratinocytes, 50 µM
# Method in brief: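 Viability after 72 h compound exposure (50–5000 µM), determined colorimetrically by MTT at 560 nm and reported as percent of untreated control.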
# [2] = Homo sapiens, five doses 10^−4–10^−8 M
smiles,measurement,setting,value
"O=c1[nH]c(C(F)(F)F)nc2c1sc(=S)n2-c1ccccc1 [Compound 2b, 3-phenyl-2-thioxo-5-(trifluoromethyl)-2,3-dihydro[1, 3]thiazolo[4,5-d]pyrimidin-7(6H)-one]",Growth of Cells (%),HT29,100.96%
same,Growth of Cells (%),MALME-3M,121.70%
same,Growth of Cells (%),NCI-H226,103.60%
same,Growth of Cells (%),K-562,115.47%
same,IC50,DU145,356 ± 14.7 µM
same,Growth of Cells (%),IGROV1,−5.14%
same,Growth of Cells (%),NCI-H322M,128.80%
same,Growth of Cells (%),SF-539,114.10%
same,Growth of Cells (%),BT-549,130.31%
"FC(F)(F)c1nc(Cl)c2sc(=S)n(-c3ccccc3)c2n1 [Compound 3b, 7-chloro-3-phenyl-5-(trifluoromethyl)[1, 3]thiazolo[4,5-d]pyrimidine-2(3H)-thione]",Growth of Cells (%),HT29,−71.75%
same,log TGI,"HT29; HT29, five doses 10^−4–10^−8 M",−5.40 log M
same,GI50,"HT29; Homo sapiens, HT-29, HT29, five doses 10^−4–10^−8 M",1.91 µM
same,Growth of Cells (%),MALME-3M,40.72%
same,GI50,MALME-3M; [2],2.29 µM
same,LC50 (concentration causing 50% cell kill),MALME-3M; [2],8.13 µM
same,log TGI,MALME-3M; five doses 10^−4–10^−8 M,−5.37 log M
same,GI50,"NCI-H226; Homo sapiens, NCI-H226, five doses 10^−4–10^−8 M",13.8 µM
same,CC50,"NCI-H226; Homo sapiens, NCI-H226, five doses 10^−4–10^−8 M, read-out: log LC50 (the source's name) (converted)",> 100 µM
same,Growth of Cells (%),NCI-H226,89.12%
same,log TGI,"NCI-H226; NCI-H226, five doses 10^−4–10^−8 M",−4.31 log M
same,GI50,"K-562; Homo sapiens, K562, K-562, five doses 10^−4–10^−8 M",0.692 µM
same,CC50,"K-562; Homo sapiens, K562, K-562, five doses 10^−4–10^−8 M, read-out: log LC50 (the source's name) (converted)",> 100 µM
same,Growth of Cells (%),K-562,33.07%
same,log TGI,"K-562; K-562, five doses 10^−4–10^−8 M",−5.36 log M
same,IC50,DU145,55.1 ± 1.1 µM
same,GI50,"IGROV1; Homo sapiens, IGROV-1, IGROV1, five doses 10^−4–10^−8 M",1.95 µM
same,CC50,"IGROV1; Homo sapiens, IGROV-1, IGROV1, five doses 10^−4–10^−8 M, read-out: log LC50 (the source's name) (converted)",7.59 µM
same,Growth of Cells (%),IGROV1,63.57%
same,log TGI,"IGROV1; IGROV1, five doses 10^−4–10^−8 M",−5.41 log M
same,GI50,"M14; M14, read-out: log GI50 (converted)",2 µM
same,CC50,"M14; M14, read-out: log LC50 (converted)",8.32 µM
same,Growth of Cells (%),NCI-H322M,101.54%
same,GI50,NCI-H322M; [2],3.8 µM
same,CC50,"NCI-H322M; Homo sapiens, five doses 10^−4–10^−8 M, read-out: log LC50 (the source's name) (converted)",38 µM
same,log TGI,NCI-H322M; five doses 10^−4–10^−8 M,−4.90 log M
same,GI50,"SF-539; Homo sapiens, SF-539, five doses 10^−4–10^−8 M",1.66 µM
same,CC50,"SF-539; Homo sapiens, SF-539, five doses 10^−4–10^−8 M, read-out: log LC50 (the source's name) (converted)",5.89 µM
same,Growth of Cells (%),SF-539,75.80%
same,log TGI,"SF-539; SF-539, five doses 10^−4–10^−8 M",−5.50 log M
same,Growth of Cells (%),BT-549,73.90%
same,log TGI,"BT-549; BT-549, five doses 10^−4–10^−8 M",−5.50 log M
same,GI50,"BT-549; Homo sapiens, BT-549, five doses 10^−4–10^−8 M",1.51 µM
same,CC50,"BT-549; Homo sapiens, BT-549, five doses 10^−4–10^−8 M, read-out: log LC50 (the source's name) (converted)",6.76 µM
same,GI50,"SK-MEL-5; Homo sapiens, SK-MEL-5, five doses 10^−4–10^−8 M",2.19 µM
same,CC50,"SK-MEL-5; Homo sapiens, SK-MEL-5, five doses 10^−4–10^−8 M, read-out: log LC50 (the source's name) (converted)",12.3 µM
same,Growth of Cells (%),SK-MEL-5,81.95%
same,log TGI,"SK-MEL-5; SK-MEL-5, five doses 10^−4–10^−8 M",−5.31 log M
same,"viability at 72 h, 50 µM",[1],20%
"CCNc1nc(C(F)(F)F)nc2c1sc(=S)n2-c1ccccc1 [Compound 4b, 7-(ethylamino)-3-phenyl-5-(trifluoromethyl)[1, 3]thiazolo[4,5-d]pyrimidine-2(3H)-thione]",Growth of Cells (%),HT29,88.76%
same,Growth of Cells (%),MALME-3M,144.23%
same,Growth of Cells (%),NCI-H226,88.51%
same,Growth of Cells (%),K-562,102.59%
same,IC50,DU145,323 ± 13.8 µM
same,Growth of Cells (%),IGROV1,101.57%
same,Growth of Cells (%),SF-539,100.98%
same,Growth of Cells (%),BT-549,95.21%
same,Growth of Cells (%),SK-MEL-5,87.63%
Fc1ccc(CNc2nc(C(F)(F)F)nc3c2sc(=S)n3-c2ccccc2)cc1 [Compound 4c],Growth of Cells (%),HT29,103.27%
same,Growth of Cells (%),MALME-3M,106.31%
same,Growth of Cells (%),NCI-H226,112.41%
same,Growth of Cells (%),K-562,107.45%
same,IC50,DU145,237 ± 10.3 µM
same,Growth of Cells (%),IGROV1,109.98%
same,Growth of Cells (%),SF-539,102.28%
same,Growth of Cells (%),BT-549,98.87%
same,Growth of Cells (%),SK-MEL-5,105.71%
